Data on two compounds can be found in patent publication US9867811B2, “Method of treating atherosclerosis in high triglyceride subjects” (NOVARTIS AG, priority 2011, dated 2018).

Data set [1] in a line: Plasma drug concentration in cynomolgus monkeys on chow or high carbohydrate diet. The class given is in vivo. The note with it: Example 8 3 mg/kg, Anacetrapib 10 mg/kg, mean ± SD; for Plasma [drug] ng/mL, Day 7, Chow / Plasma [drug] ng/mL, Day 14, Chow: chow diet; for Plasma [drug] ng/mL, Day 7, Chow / Plasma [drug] ng/mL, Day 7, High CHO: day 7, daily oral; for Plasma [drug] ng/mL, Day 14, Chow / Plasma [drug] ng/mL, Day 14, High CHO: day 14, daily oral; for Plasma [drug] ng/mL, Day 7, High CHO / Plasma [drug] ng/mL, Day 14, High CHO: high carbohydrate diet. The text has this:
(§1) Normal male cynomolgus monkeys (n=17) weighing between 8-14 kg are placed on a high-carbohydrate, low-fat diet. The caloric composition of the diet is approximately 13.4% protein, 79.1% carbohydrate (sugar to starch ratio 50:50) and 7.5% fat. Calories are derived from standard monkey chow (LabDiet® 5047, PMI, Richmond, Ind. or LabDiet® 5000, Balanced Fiber diet, PMI, Richmond, Ind.) in quantities necessary to meet the protein and fat requirements, with the remaining calories provided by sugar-sweetened cereals, candies, and fruit (banana, orange, cantaloupe, honeydew, pineapple). The high-carbohydrate (CHO) diet will be fed for 18 days (4 days of pre-drug diet, 14 days of drug treatment), after which time they will return to their regular chow diets for a 14 day washout period followed by a second 14 day dosing phase of the study (normal diet).
(§2) Compound of Example 8 is dissolved at 30 mg/mL in 1M NaOH+ethanol:maisoel glyceride:propylene glycol:cremophor RH40 (10:36:9:45) and diluted 1:10 in ddH2O. […] The formulations are prepared each day (weekend doses are prepared on Friday) and stored stirring and protected from light at room temperature until dosing. Artificial flavor and color will be added to the dose when prepared.
(§3) The animals will ingest the compounds (1 mL/kg) voluntarily from a plastic syringe offered at their home cage at approximately 8 am daily. Animals will be fed 60 minutes after the dose is administered.
(§4) Blood collection will take place weekly during each dosing phase. Animals are fasted overnight (approximately 16 hours) prior to blood collection. Blood samples are collected from a saphenous vein via needle and syringe and put into 2 mL EDTA-coated tubes that are immediately placed on ice until centrifugation. Samples are centrifuged at 3,000 rpm for 20 minutes. The plasma is collected, divided into aliquots (listed below), and stored at −70° C. until analysis.

In a further data set the target is T1, CETP (Macaca fascicularis, UniProt P47896).
T1 construct: from tissue; host or cells: EDTA plasma of cynomolgus monkeys dosed orally
T1 sequence (P47896 18-493): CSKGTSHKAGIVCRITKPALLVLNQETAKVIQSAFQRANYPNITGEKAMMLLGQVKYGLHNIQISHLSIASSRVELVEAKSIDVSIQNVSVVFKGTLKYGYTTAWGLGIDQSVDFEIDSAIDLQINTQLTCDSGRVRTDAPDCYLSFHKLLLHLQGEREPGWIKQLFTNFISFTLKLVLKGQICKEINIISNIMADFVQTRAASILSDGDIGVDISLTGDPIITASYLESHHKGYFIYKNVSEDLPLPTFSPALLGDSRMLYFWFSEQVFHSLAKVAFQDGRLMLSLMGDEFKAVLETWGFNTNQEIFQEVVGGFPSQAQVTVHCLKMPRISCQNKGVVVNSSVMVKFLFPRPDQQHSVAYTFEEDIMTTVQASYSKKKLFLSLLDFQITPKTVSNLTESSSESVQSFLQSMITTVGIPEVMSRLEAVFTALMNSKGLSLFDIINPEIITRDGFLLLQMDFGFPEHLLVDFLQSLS
The data set is described as follows: Plasma CETP activity in cynomolgus monkeys on chow or high carbohydrate diet. The note with it: for CETP activity % Δ vs day 0, Day 7, Chow / CETP activity % Δ vs day 0, Day 14, Chow: chow diet; for CETP activity % Δ vs day 0, Day 7, Chow / CETP activity % Δ vs day 0, Day 7, High CHO: day 7, Example 8 3 mg/kg; for CETP activity % Δ vs day 0, Day 7, Chow / CETP activity % Δ vs day 0, Day 14, Chow / CETP activity % Δ vs day 0, Day 7, High CHO / CETP activity % Δ vs day 0, Day 14, High CHO: Anacetrapib 10 mg/kg, mean ± SD; for CETP activity % Δ vs day 0, Day 14, Chow / CETP activity % Δ vs day 0, Day 14, High CHO: day 14, Example 8 3 mg/kg; for CETP activity % Δ vs day 0, Day 7, High CHO / CETP activity % Δ vs day 0, Day 14, High CHO: high carbohydrate diet. The class given is in vivo.
From the text: as §1, §2, §3, §4

Turning to `COc1cc(F)c(C(C)C)cc1-c1ccc(C(F)(F)F)cc1CN1C(=O)O[C@H](c2cc(C(F)(F)F)cc(C(F)(F)F)c2)[C@@H]1C` [Anacetrapib, reference compound], in data set [1], the “Plasma [drug] ng/mL, Day 7, Chow” value is listed as 272 ± 74 ng/mL; the “Plasma [drug] ng/mL, Day 14, Chow” value turned out to be 320 ± 93 ng/mL; the “Plasma [drug] ng/mL, Day 7, High CHO” value was 1836 ± 3694 ng/mL; the “Plasma [drug] ng/mL, Day 14, High CHO” value was determined as 1437 ± 2935 ng/mL. Moreover, on CETP, the “CETP activity % Δ vs day 0, Day 7, Chow” value is recorded as −62 ± 15%; the “CETP activity % Δ vs day 0, Day 14, Chow” value is listed as −59 ± 19%; the “CETP activity % Δ vs day 0, Day 7, High CHO” value is −33 ± 23%; the “CETP activity % Δ vs day 0, Day 14, High CHO” value was −24 ± 22%.
In the case of `CC[C@@H]1C[C@H](N(Cc2cc(C(F)(F)F)cc(C(F)(F)F)c2)c2ncc(-c3cnn(C)c3)cn2)C[C@H](CC)N1C(=O)O[C@H]1CC[C@H](C(=O)O)CC1` [Example 8], in data set [1], the “Plasma [drug] ng/mL, Day 7, Chow” value was 983 ± 408 ng/mL; the “Plasma [drug] ng/mL, Day 14, Chow” value came out at 1015 ± 398 ng/mL; the “Plasma [drug] ng/mL, Day 7, High CHO” value turned out to be 1706 ± 949 ng/mL; the “Plasma [drug] ng/mL, Day 14, High CHO” value is reported as 1709 ± 800 ng/mL. For the same compound, at CETP (TG>500 mg/dL), the “CETP inhibitory activity in monkeys with diet-induced hypertriglyceridemia” value is recorded as “retains CEPT inhibitory activity”. In addition, at CETP, the “CETP activity % Δ vs day 0, Day 7, Chow” value is −78 ± 7%; the “CETP activity % Δ vs day 0, Day 14, Chow” value is reported as −73 ± 9%; the “CETP activity % Δ vs day 0, Day 7, High CHO” value was −72 ± 7%; the “CETP activity % Δ vs day 0, Day 14, High CHO” value is reported as −66 ± 10%.
